This is an account of results in PMC4357247, “Novel agonists for serotonin 5-HT7 receptors reverse metabotropic glutamate receptor-mediated long-term depression in the hippocampus of wild-type and Fmr1 KO mice, a model of Fragile X Syndrome” (Frontiers in Behavioral Neuroscience, 2015).

pKi: −log10 of the molar value. Where “and” joins values, the source holds several entries; their conditions need not be identical. Equal values may be shown once.

The nature of data set [1]: Metabolic stability in mouse hepatic microsomes with NADPH-generating system. The note with it: pH 7.4; for half-life at 1 μM: mouse liver microsomes 0.5 mg/mL, 1 μM compound, 37°C; for microsomal CLint at 1 μM: calculated from in vitro half-life, mouse liver microsomes. In kind it is in vitro ADME. The method, then: Metabolic reactions were initiated by the addition of a NADPH regenerating system (NADP, glucose-6-phosphate, glucose-6-phosphate dehydrogenase, final glucose-6-phosphate dehydrogenase concentration, 1 unit/mL). Aliquots were removed (0, 5, 10, 30, and 60 min) and immediately mixed with an equal volume of cold acetonitrile containing internal standard. Test compound incubated with microsomes without NADPH regenerating system for 60 min was included. […] The column used was a Phenomenex Gemini C-18 (250 × 4.6 mm, 5 μm particle size). The samples were isocratically eluted using CH3CN/ammonium formate (20 mM, pH 5.5) 7:3 (v/v) as mobile phase. […] Liver microsomes provide the most convenient way to study cytochrome P450 enzyme-mediated metabolism.

In data set [2] the test system is mGluR-LTD in CA1 pyramidal neurons of hippocampal slices (native 5-HT7 receptors). As to the kind of experiment: Patch clamp: reversal of DHPG-induced mGluR-LTD of EPSCs in CA1 pyramidal neurons, hippocampal slices from wild-type mice. In kind it is cell-based. The settings on record: 5 min, measured 45 min after DHPG; for EPSC amplitude: compound 10 nM. The method, then:
(§1) Patch clamp experiments were performed on mouse hippocampal slices from wild-type (wt) mice (FVB and C57BL/6J background) and Fmr1 KO2 mice (C57BL/6J background, kindly provided by Prof. Willemsen, Erasmus MC, Rotterdam, The Netherlands). […] Every care was taken to maximally reduce the number of animals and to minimize discomfort.
(§2) Acute hippocampal slices ([…]) were cut with a vibratome (Leica VT 1200). Slices were continually perfused with oxygenated ACSF. After 3 h of recovery, one slice was placed in the recording chamber of a patch camp set up and viewed with infrared microscopy (Leica DMLFS). A tungsten electrode was placed in the stratum radiatum to stimulate Schaffer collaterals with negative current pulses (duration 0.3 ms, delivered every 15 s by A310 Accupulser, WPI, USA). Evoked AMPA receptor-mediated excitatory post-synaptic currents (EPSCs) were recorded from CA1 pyramidal neurons under whole-cell patch clamp (holding potential -70 mV; EPC7-plus amplifier HEKA, Germany). Stimulation intensity was set to induce half-maximal EPSC amplitude. Series resistance (Rs) was monitored throughout the recording by means of 10 mV hyperpolarizing pulses; recordings were discarded from analysis if Rs changed by more than 20%. EPSC traces were filtered at 3 kHz and digitized at 10 kHz. Data were acquired and analyzed using Signal software (CED, England). The recording micropipette (resistance 1.5–3 MΩ) was filled with intracellular solution (in mM: K-gluconate 140; HEPES 10; NaCl 10; MgCl2 2; EGTA 0.2; Mg-ATP 3.5; Na-GTP 1; pH 7.3).
(§3) Cumulative histograms indicate % EPSC amplitude (mean ± SEM from groups of neurons) after application of DHPG alone (control LTD) or DHPG followed by a 5-HT7 receptor agonist. EPSC amplitude values from two groups of neurons were compared using the Student's t-test, with n indicating the number of neurons tested in each condition.
For orientation: The patch-clamp technique gives a direct electrical read-out from membranes.

For data set [3] the test system is unchanged. As to the kind of experiment: Patch clamp: reversal of DHPG-induced mGluR-LTD of EPSCs in CA1 pyramidal neurons, hippocampal slices from Fmr1 KO mice. In kind it is cell-based. The settings on record: Fmr1 KO (C57BL6J) slices, 5 min; for EPSC amplitude: compound 10 nM, applied after DHPG (100 μM, 5 min). The method, then:
as §1, §2, §3

The next data set concerns the target T1, 5-HT1A receptors (Homo sapiens, UniProt P08908).
T1 sequence (P08908 1-422): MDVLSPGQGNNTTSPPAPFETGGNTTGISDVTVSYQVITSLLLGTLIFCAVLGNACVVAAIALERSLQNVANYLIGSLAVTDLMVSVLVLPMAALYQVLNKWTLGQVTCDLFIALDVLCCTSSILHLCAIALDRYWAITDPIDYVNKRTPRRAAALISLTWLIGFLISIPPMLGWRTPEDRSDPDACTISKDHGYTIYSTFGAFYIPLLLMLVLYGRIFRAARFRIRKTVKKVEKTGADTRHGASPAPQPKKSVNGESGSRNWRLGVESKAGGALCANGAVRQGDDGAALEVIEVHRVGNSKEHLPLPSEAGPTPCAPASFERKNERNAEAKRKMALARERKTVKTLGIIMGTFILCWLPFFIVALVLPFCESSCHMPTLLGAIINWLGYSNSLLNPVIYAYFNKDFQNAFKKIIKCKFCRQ
As to the kind of experiment: Binding affinity for 5-HT1A receptors. The source says:
Table 1 Binding Affinity Data and Pharmacokinetic Parameters of Test Compounds. | column: 5-HT1AKi [nM]

On the set-up of data set [4]: method as in Leopoldo et al., 2008. The settings on record: mice, intraperitoneal injection; ref Leopoldo et al., 2008; cited from earlier work.
The target of the next data set is 5-HT7 receptors (Homo sapiens, UniProt P34969). As to the kind of experiment: Radioligand binding affinity for 5-HT7 receptors.
Chain of 5-HT7 receptors (P34969 whole entry): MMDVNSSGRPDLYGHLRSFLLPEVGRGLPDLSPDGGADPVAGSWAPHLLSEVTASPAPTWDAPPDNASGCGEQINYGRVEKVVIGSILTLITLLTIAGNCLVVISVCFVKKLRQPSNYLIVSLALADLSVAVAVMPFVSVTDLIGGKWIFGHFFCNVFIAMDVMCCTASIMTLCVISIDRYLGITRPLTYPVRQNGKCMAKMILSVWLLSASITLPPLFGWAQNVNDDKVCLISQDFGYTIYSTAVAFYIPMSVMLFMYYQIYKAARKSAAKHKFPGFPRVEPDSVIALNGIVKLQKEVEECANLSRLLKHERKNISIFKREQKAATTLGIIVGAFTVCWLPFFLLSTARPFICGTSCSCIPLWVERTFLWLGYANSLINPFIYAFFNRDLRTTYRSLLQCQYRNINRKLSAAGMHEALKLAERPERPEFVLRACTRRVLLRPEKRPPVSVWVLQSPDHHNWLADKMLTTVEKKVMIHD
The target of a further data set is T2, P-glycoprotein (P-gp) (Homo sapiens, UniProt P08183).
T2 construct: fluxes in Caco-2 cells monolayer; endogenous in cells; host or cells: Caco-2 cells
T2 sequence (P08183 whole entry): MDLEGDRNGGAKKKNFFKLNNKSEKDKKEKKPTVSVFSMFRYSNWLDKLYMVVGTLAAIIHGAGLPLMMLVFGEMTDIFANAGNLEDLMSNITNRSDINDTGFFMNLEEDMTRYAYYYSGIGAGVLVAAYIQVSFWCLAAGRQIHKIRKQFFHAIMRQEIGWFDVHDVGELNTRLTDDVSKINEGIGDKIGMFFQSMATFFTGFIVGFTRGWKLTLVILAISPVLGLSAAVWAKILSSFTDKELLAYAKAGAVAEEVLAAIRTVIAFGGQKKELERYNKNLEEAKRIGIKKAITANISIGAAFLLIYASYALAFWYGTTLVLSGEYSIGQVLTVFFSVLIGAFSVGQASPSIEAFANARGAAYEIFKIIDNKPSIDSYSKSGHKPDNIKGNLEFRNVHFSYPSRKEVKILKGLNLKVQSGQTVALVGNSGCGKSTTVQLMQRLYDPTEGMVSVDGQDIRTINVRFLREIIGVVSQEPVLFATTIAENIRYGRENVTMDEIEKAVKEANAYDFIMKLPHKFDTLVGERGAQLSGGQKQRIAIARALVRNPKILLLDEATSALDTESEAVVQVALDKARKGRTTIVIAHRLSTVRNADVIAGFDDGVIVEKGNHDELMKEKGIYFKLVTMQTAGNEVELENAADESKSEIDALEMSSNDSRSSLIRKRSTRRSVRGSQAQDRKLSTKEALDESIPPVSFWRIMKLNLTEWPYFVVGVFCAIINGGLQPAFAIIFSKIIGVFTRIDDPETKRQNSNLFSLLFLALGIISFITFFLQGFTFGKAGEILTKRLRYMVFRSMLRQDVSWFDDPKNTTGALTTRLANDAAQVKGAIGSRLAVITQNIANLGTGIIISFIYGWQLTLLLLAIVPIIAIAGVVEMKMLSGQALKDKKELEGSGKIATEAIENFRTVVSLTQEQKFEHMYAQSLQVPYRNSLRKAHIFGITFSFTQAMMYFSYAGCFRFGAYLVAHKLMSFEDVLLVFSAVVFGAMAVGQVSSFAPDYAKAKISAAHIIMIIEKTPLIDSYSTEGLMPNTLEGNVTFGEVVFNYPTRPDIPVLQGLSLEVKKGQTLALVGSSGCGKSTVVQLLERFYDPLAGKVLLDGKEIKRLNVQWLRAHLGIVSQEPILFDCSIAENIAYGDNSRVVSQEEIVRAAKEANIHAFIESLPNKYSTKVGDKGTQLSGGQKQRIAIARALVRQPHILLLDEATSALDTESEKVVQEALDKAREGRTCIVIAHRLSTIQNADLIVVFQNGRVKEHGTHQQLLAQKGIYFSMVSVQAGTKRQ
As to the kind of experiment: Efflux ratio (BA/AB) in Caco-2 cells monolayer. The note with it: efflux ratio basal-to-apical / apical-to-basal, Caco-2 monolayer, cutoff 3 for P-gp substrate. In kind it is in vitro ADME. The source says: This system is an in vitro model to evaluate the interaction of small molecules with P-glycoprotein (P-gp), an efflux pump localized on the blood-brain barrier that prevents xenobiotics to enter the brain. Therefore, a centrally acting drug should not be a P-gp substrate.
A general note: Caco-2 monolayers are a common model of the intestinal barrier.

Where [5] appears, read: wt FVB slices, applied after DHPG (100 μM, 5 min).

The half-life is how long it takes for the measured level to halve. As usually defined, the microsomal CLint is the rate of metabolic loss divided by the concentration. Turning to `COc1ccc(-c2ccccc2N2CCN(C[C@@H](O)COc3cnccn3)CC2)cc1` [BA-10, (R)-1-[4-[2-(4-methoxyphenyl)phenyl]piperazin-1-yl]-3-(2-pyrazinyloxy)-2-propanol], in data set [1], the half-life at 1 μM worked out at 14.8 min and the intrinsic metabolic clearance (microsomal CLint) at 1 μM was 96 µL/min/mg.
On to `N[C@H](C(=O)O)c1cc(O)cc(O)c1` [DHPG, S-3,5-DHPG], for which the “EPSC amplitude after DHPG alone (mGluR-LTD)” value in data set [2] (wt C57BL/6J slices, DHPG 100 μM) was 74.4 ± 9.8 % of control; in data set [3] (DHPG 100 μM, measured 45 min after DHPG), 56 ± 5 % of control and 56 ± 12 % of control.
In general, pKi refers to −log10 of the Ki, conventionally taken in molar units. `N#Cc1ccc(CNC(=O)CCCCCN2CCN(c3ccccc3-c3ccccc3)CC2)cc1` [LP-211, N-(4-cyanophenylmethyl)-4-(2-diphenyl)-1-piperazinehexanamide, reference compound]: the pKi at 5-HT1A receptors is 6.73. In data set [1], this molecule gave a half-life at 1 μM of 10.6 min. Moreover, the intrinsic clearance (microsomal CLint) at 1 μM in data set [1] is 131 µL/min/mg. The EPSC amplitude in data set [2] (wt C57BL/6J slices, applied 5 min after DHPG (100 μM, 5 min)) is 99.4 ± 1.5 % of control; in data set [3] (45 min after DHPG) it was 78 ± 5 % of control; in data set [3] (55 min after DHPG), 97 ± 3 % of control. The in vivo half-life in data set [4] is reported as 65 min.
Broadly, the efflux ratio is a quotient of directional permeabilities that is used to spot active efflux. As to `COc1ccc(-c2ccccc2N2CCN(CCCCCC(=O)NCc3ccc(F)nc3)CC2)cc1` [PF-62, N-(2-fluoropyridin-5-ylmethyl)-4-[2-(4-methoxy)phenyl]-1-piperazinehexanamide], on 5-HT7 receptors, the negative-log Ki (pKi) was 8.42. The molecule further gave a pKi at 5-HT1A receptors of 6.82. Moreover, in data set [1], the half-life at 1 μM came out at 6.7 min and the microsomal CLint at 1 μM is 205 µL/min/mg. For the same molecule, the efflux ratio on P-glycoprotein (P-gp) was determined as 4.2.
As to `COc1ccc(-c2ccccc2N2CCNCC2)cc1` [PM-20, 1-[2-(4-methoxyphenyl)phenyl]piperazine], the EPSC amplitude in data set [2] (setting [5]) is listed as 60 ± 7 % of control.
Still for that read-out and setting: as for `c1ccc(-c2ccccc2N2CCNCC2)cc1` [RA-7, 1-(2-biphenyl)piperazine], the figure is 64 ± 7 % of control.
